Results: PubChem BioAssay AID1918949 (Molecular Pharmacology Branch, DTP, NCI, 2023)
“And” between values parts separate entries of the source, which are not always exact repeats. Equal entries are not always repeated. Values belong to the molecule of their own block, whether it stands above or below them.

System: K24384-001-R-PDC complex spheroid viability
Test: Anticancer human tumor K24384-001-R-PDC patient-derived pancreatic adenocarcinoma cell line growth inhibition
Details: for viability, T/C: stronger effect = lower value
Method in brief: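 Multicellular complex spheroids of tumor cells with human endothelial cells (HUVEC) and mesenchymal stem cells; the LSD1 inhibitor iadademstat was combined with standard-of-care or investigational agents. Top concentration at or near clinical Cmax, half-log dilutions; final DMSO ≤0.25%.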

[1] = curve of first compound, second compound 0.1 µM
[2] = curve of first compound, second compound 0.316 µM
[3] = curve of first compound, second compound 1 µM
[4] = curve of first compound, second compound 3.16 µM
[5] = curve of first compound, second compound 10 µM
[6] = second compound 0.1 µM, first compound 0.00316 µM
[7] = second compound 0.1 µM, first compound 0.01 µM
[8] = second compound 0.1 µM, first compound 0.0316 µM
[9] = second compound 0.1 µM, first compound 0.1 µM
[10] = second compound 0.316 µM, first compound 0.00316 µM
[11] = second compound 0.316 µM, first compound 0.01 µM
[12] = second compound 0.316 µM, first compound 0.0316 µM
[13] = second compound 0.316 µM, first compound 0.1 µM
[14] = second compound 1 µM, first compound 0.00316 µM
[15] = second compound 1 µM, first compound 0.01 µM
[16] = second compound 1 µM, first compound 0.0316 µM
[17] = second compound 1 µM, first compound 0.1 µM
[18] = second compound 3.16 µM, first compound 0.00316 µM
[19] = second compound 3.16 µM, first compound 0.01 µM
[20] = second compound 3.16 µM, first compound 0.0316 µM
[21] = second compound 3.16 µM, first compound 0.1 µM
[22] = second compound 10 µM, first compound 0.00316 µM
[23] = second compound 10 µM, first compound 0.01 µM
[24] = second compound 10 µM, first compound 0.0316 µM
[25] = second compound 10 µM, first compound 0.1 µM
[26] = second compound 0.1 µM, first compound 0.00949 µM
[27] = second compound 0.1 µM, first compound 0.03 µM
[28] = second compound 0.1 µM, first compound 0.0949 µM
[29] = second compound 0.1 µM, first compound 0.3 µM
[30] = second compound 0.316 µM, first compound 0.00949 µM
[31] = second compound 0.316 µM, first compound 0.03 µM
[32] = second compound 0.316 µM, first compound 0.0949 µM
[33] = second compound 0.316 µM, first compound 0.3 µM
[34] = second compound 1 µM, first compound 0.00949 µM
[35] = second compound 1 µM, first compound 0.03 µM
[36] = second compound 1 µM, first compound 0.0949 µM
[37] = second compound 1 µM, first compound 0.3 µM
[38] = second compound 3.16 µM, first compound 0.00949 µM
[39] = second compound 3.16 µM, first compound 0.03 µM
[40] = second compound 3.16 µM, first compound 0.0949 µM
[41] = second compound 3.16 µM, first compound 0.3 µM
[42] = second compound 10 µM, first compound 0.00949 µM
[43] = second compound 10 µM, first compound 0.03 µM
[44] = second compound 10 µM, first compound 0.0949 µM
[45] = second compound 10 µM, first compound 0.3 µM
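Also: spheroids exposed to agents for seven days before luminescence viability reading.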
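For viability, T/C in this document: 100% = DMSO vehicle control viability.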

SMILES: COc1cc(Nc2ncc3c(n2)-c2ccc(Cl)cc2C(c2c(F)cccc2OC)=NC3)ccc1C(=O)O + NC1CCC(NC2CC2c2ccccc2)CC1
- IC50 [1]: > 1 µM
- IC50 [2]: > 1 µM
- IC50 [3]: > 1 µM
- IC50 [4]: > 1 µM
- IC50 [5]: > 1 µM
- viability, T/C [6]: 82.2%
- viability, T/C [7]: 91.4%
- viability, T/C [8]: 70.1%
- viability, T/C [9]: 54.5%
- viability, T/C (second compound 0.1 µM, first compound 0.316 µM): 58.4%
- viability, T/C (second compound 0.1 µM, first compound 1 µM): 84.1%
- viability, T/C [10]: 87.8%
- viability, T/C [11]: 72%
- viability, T/C [12]: 71%
- viability, T/C [13]: 56.7%
- viability, T/C (second compound 0.316 µM, first compound 0.316 µM): 52.2%
- viability, T/C (second compound 0.316 µM, first compound 1 µM): 58.6%
- viability, T/C [14]: 71.1%
- viability, T/C [15]: 87.3%
- viability, T/C [16]: 59.8%
- viability, T/C [17]: 53.8%
- viability, T/C (second compound 1 µM, first compound 0.316 µM): 67.3%
- viability, T/C (second compound 1 µM, first compound 1 µM): 60.7%
- viability, T/C [18]: 83.7%
- viability, T/C [19]: 77.6%
- viability, T/C [20]: 62.2%
- viability, T/C [21]: 57.3%
- viability, T/C (second compound 3.16 µM, first compound 0.316 µM): 51.9%
- viability, T/C (second compound 3.16 µM, first compound 1 µM): 60.6%
- viability, T/C [22]: 80.8%
- viability, T/C [23]: 84.1%
- viability, T/C [24]: 58.9%
- viability, T/C [25]: 58.8%
- viability, T/C (second compound 10 µM, first compound 0.316 µM): 52.4%
- viability, T/C (second compound 10 µM, first compound 1 µM): 60.8%

SMILES: Cn1ncnc1C1c2n[nH]c(=O)c3cc(F)cc(c23)NC1c1ccc(F)cc1 (centres undefined) + NC1CC1c1ccc(-c2cccc(O)c2)cc1
- IC50 [1]: > 0.1 µM
- IC50 [2]: > 0.1 µM
- IC50 [3]: > 0.1 µM
- IC50 [4]: > 0.1 µM
- IC50 [5]: > 0.1 µM
- viability, T/C (second compound 0.1 µM, first compound 0.000316 µM): 92.8%
- viability, T/C (second compound 0.1 µM, first compound 0.001 µM): 121%
- viability, T/C [6]: 104%
- viability, T/C [7]: 88.4%
- viability, T/C [8]: 77.6%
- viability, T/C [9]: 77.8%
- viability, T/C (second compound 0.316 µM, first compound 0.000316 µM): 101%
- viability, T/C (second compound 0.316 µM, first compound 0.001 µM): 105%
- viability, T/C [10]: 84.4%
- viability, T/C [11]: 85.8%
- viability, T/C [12]: 93.8%
- viability, T/C [13]: 73.3%
- viability, T/C (second compound 1 µM, first compound 0.000316 µM): 108%
- viability, T/C (second compound 1 µM, first compound 0.001 µM): 96.7%
- viability, T/C [14]: 84.5%
- viability, T/C [15]: 94.2%
- viability, T/C [16]: 78.3%
- viability, T/C [17]: 102%
- viability, T/C (second compound 3.16 µM, first compound 0.000316 µM): 91.7%
- viability, T/C (second compound 3.16 µM, first compound 0.001 µM): 96.9%
- viability, T/C [18]: 93.6%
- viability, T/C [19]: 101%
- viability, T/C [20]: 102%
- viability, T/C [21]: 75.8%
- viability, T/C (second compound 10 µM, first compound 0.000316 µM): 108%
- viability, T/C (second compound 10 µM, first compound 0.001 µM): 111%
- viability, T/C [22]: 126%
- viability, T/C [23]: 94.9%
- viability, T/C [24]: 96%
- viability, T/C [25]: 86.5%

- IC50 (curve of compound): > 10 µM
SMILES: O=C(c1cc(Cc2n[nH]c(=O)c3ccccc23)ccc1F)N1CCN(C(=O)C2CC2)CC1
- viability, T/C (compound 0.0316 µM): 104% and 94.8%
- viability, T/C (compound 0.1 µM): 97.3% and 91.9%
- viability, T/C (compound 0.316 µM): 91% and 88.9%
- viability, T/C (compound 1 µM): 85.5% and 81.4%
- viability, T/C (compound 3.16 µM): 82.9% and 67.7%
- viability, T/C (compound 10 µM): 84.4% and 70.1%

SMILES: NS(=O)(=O)OCC1CC(n2ccc3c(NC4CCc5ccccc54)ncnc32)CC1O (centres undefined) + NC1CCC(NC2CC2c2ccccc2)CC1
- IC50 [1]: 0.506 µM
- IC50 [2]: 0.517 µM
- IC50 [3]: 0.412 µM
- IC50 [4]: 0.445 µM
- IC50 [5]: 0.441 µM
- viability, T/C [26]: 98.6%
- viability, T/C [27]: 138%
- viability, T/C [28]: 125%
- viability, T/C [29]: 64.8%
- viability, T/C (second compound 0.1 µM, first compound 0.949 µM): 38.5%
- viability, T/C (second compound 0.1 µM, first compound 3 µM): 26.1%
- viability, T/C [30]: 87.6%
- viability, T/C [31]: 142%
- viability, T/C [32]: 144%
- viability, T/C [33]: 67.9%
- viability, T/C (second compound 0.316 µM, first compound 0.949 µM): 34.1%
- viability, T/C (second compound 0.316 µM, first compound 3 µM): 26.1%
- viability, T/C [34]: 109%
- viability, T/C [35]: 138%
- viability, T/C [36]: 124%
- viability, T/C [37]: 56.6%
- viability, T/C (second compound 1 µM, first compound 0.949 µM): 37.8%
- viability, T/C (second compound 1 µM, first compound 3 µM): 27.2%
- viability, T/C [38]: 93.2%
- viability, T/C [39]: 138%
- viability, T/C [40]: 118%
- viability, T/C [41]: 59.7%
- viability, T/C (second compound 3.16 µM, first compound 0.949 µM): 37.1%
- viability, T/C (second compound 3.16 µM, first compound 3 µM): 25.9%
- viability, T/C [42]: 91.2%
- viability, T/C [43]: 116%
- viability, T/C [44]: 95.7%
- viability, T/C [45]: 58.4%
- viability, T/C (second compound 10 µM, first compound 0.949 µM): 31.9%
- viability, T/C (second compound 10 µM, first compound 3 µM): 13.2%

- IC50 (curve of compound): 2.07 µM and 2.11 µM
SMILES: COc1ccc([C@@H](O)c2cc(-c3ncnc4cc(N5CCOCC5)ccc34)c(F)cc2Cl)nn1
- viability, T/C (compound 0.0316 µM): 102% and 111%
- viability, T/C (compound 0.1 µM): 94.1% and 102%
- viability, T/C (compound 0.316 µM): 94.3% and 82.1%
- viability, T/C (compound 1 µM): 68.3% and 63.3%
- viability, T/C (compound 3.16 µM): 39.1% and 44.5%
- viability, T/C (compound 10 µM): 15.3% and 16.4%

SMILES: CCc1c2c(nc3ccc(O)cc13)-c1cc3c(c(=O)n1C2)COC(=O)[C@]3(O)CC + NC1CC1c1ccc(-c2cccc(O)c2)cc1
- IC50 [1]: < 0.000949 µM
- IC50 [2]: < 0.000949 µM
- IC50 [3]: < 0.000949 µM
- IC50 [4]: < 0.000949 µM
- IC50 [5]: < 0.000949 µM
- viability, T/C (second compound 0.1 µM, first compound 0.000949 µM): 38.8%
- viability, T/C (second compound 0.1 µM, first compound 0.003 µM): 32.7%
- viability, T/C [26]: 28.5%
- viability, T/C [27]: 8.07%
- viability, T/C [28]: 5.66%
- viability, T/C [29]: 4.56%
- viability, T/C (second compound 0.316 µM, first compound 0.000949 µM): 34.2%
- viability, T/C (second compound 0.316 µM, first compound 0.003 µM): 30.9%
- viability, T/C [30]: 31.5%
- viability, T/C [31]: 10.9%
- viability, T/C [32]: 8.49%
- viability, T/C [33]: 5.16%
- viability, T/C (second compound 1 µM, first compound 0.000949 µM): 36.8%
- viability, T/C (second compound 1 µM, first compound 0.003 µM): 34.2%
- viability, T/C [34]: 26.4%
- viability, T/C [35]: 7.42%
- viability, T/C [36]: 4.74%
- viability, T/C [37]: 4.43%
- viability, T/C (second compound 3.16 µM, first compound 0.000949 µM): 37.1%
- viability, T/C (second compound 3.16 µM, first compound 0.003 µM): 33.7%
- viability, T/C [38]: 25.8%
- viability, T/C [39]: 7.05%
- viability, T/C [40]: 4.62%
- viability, T/C [41]: 4.99%
- viability, T/C (second compound 10 µM, first compound 0.000949 µM): 43.4%
- viability, T/C (second compound 10 µM, first compound 0.003 µM): 34.2%
- viability, T/C [42]: 24%
- viability, T/C [43]: 5.88%
- viability, T/C [44]: 5.79%
- viability, T/C [45]: 4.12%
